The values below come from PubChem BioAssay (NCI).

Test systems include A498 renal; DU-145 prostate; HT29 colon; K-562 leukemia; MCF7 breast; NCI-H460 lung; OVCAR-8 ovarian; RXF 393 renal; SNB-75 CNS; U251 CNS.
Holding throughout (experiment): NCI anticancer screen, dose series, 48 h

Structures are written as SMILES.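 How tested: cells in 96-well plates exposed to compound for 48 hours at five concentrations. At the GI50, growth is halved. TGI: concentration producing complete growth inhibition.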

Consider `Cc1cc[n+]2c(c1)-c1cc(C)cc[n+]1CC2`, for which the TGI in the assay on A498 renal, in the assay with DU-145 prostate, with HT29 colon, in the assay with K-562 leukemia, with MCF7 breast and in the assay on NCI-H460 lung was over 100 µM throughout. The TGI with OVCAR-8 ovarian, with RXF 393 renal, in the assay on SNB-75 CNS and in the assay on U251 CNS was over 100 µM in each case.
Turning to `O=C(O)CCC(=O)c1ccc2sc3ccccc3c2c1`, the TGI in the assay on A498 renal, with DU-145 prostate, with HT29 colon, in the assay on K-562 leukemia, in the assay on MCF7 breast and in the assay with NCI-H460 lung was over 100 µM in each case. Also, the TGI in the assay on OVCAR-8 ovarian, in the assay with RXF 393 renal, in the assay with SNB-75 CNS and in the assay on U251 CNS was over 100 µM in each case.
In the case of `O=C(O)c1cccc(C(=O)O)c1S(=O)Cc1ccccc1` (stereo not given), the TGI in the assay with A498 renal, with DU-145 prostate, with HT29 colon, in the assay with K-562 leukemia, in the assay on MCF7 breast and in the assay with NCI-H460 lung was over 100 µM each time. The TGI in the assay on OVCAR-8 ovarian, in the assay on RXF 393 renal, in the assay on SNB-75 CNS and in the assay with U251 CNS was over 100 µM each time.
For the compound `C[C@]12CC[C@@H]3c4cc(OC(F)F)c(OS(N)(=O)=O)cc4CC[C@H]3[C@@H]1CC[C@@H]2O`, the GI50 was 0.199 µM with A498 renal; 0.49 µM with DU-145 prostate; 0.371 µM with HT29 colon; 0.364 µM with K-562 leukemia; 0.39 µM in the assay with MCF7 breast; 0.401 µM in the assay on NCI-H460 lung. In addition, the GI50 is 0.848 µM in the assay with OVCAR-8 ovarian, 0.139 µM with RXF 393 renal, 0.193 µM in the assay with SNB-75 CNS and 0.539 µM in the assay with U251 CNS. Further, the TGI in the assay on A498 renal is 0.86 µM; with DU-145 prostate, over 100 µM; in the assay with HT29 colon, 13.9 µM; with K-562 leukemia, over 100 µM; with MCF7 breast, 20.8 µM; in the assay with NCI-H460 lung, 11.3 µM. Moreover, the TGI in the assay with OVCAR-8 ovarian stood at 60.7 µM; in the assay on RXF 393 renal, 0.589 µM; with SNB-75 CNS it was 0.665 µM; in the assay with U251 CNS, 16.4 µM.
Regarding `Oc1ccc(C(c2ccc(O)cc2)c2ccc(Br)cn2)cc1`, the GI50 was 0.6 µM in the assay on A498 renal; 2.8 µM in the assay with DU-145 prostate; 5.99 µM with HT29 colon; 14.4 µM with K-562 leukemia; 0.264 µM with MCF7 breast; 20.7 µM in the assay on NCI-H460 lung. In addition, the GI50 is 0.276 µM in the assay on OVCAR-8 ovarian, 0.217 µM in the assay with RXF 393 renal, 0.192 µM in the assay on SNB-75 CNS and 18.5 µM with U251 CNS. In addition, the TGI is 16.1 µM in the assay on A498 renal; over 69.3 µM in the assay with DU-145 prostate; 98.7 µM with HT29 colon; over 100 µM in the assay with K-562 leukemia; 0.732 µM in the assay with MCF7 breast; 49.1 µM with NCI-H460 lung. The TGI in the assay on OVCAR-8 ovarian was 0.786 µM; in the assay with RXF 393 renal, 0.532 µM; in the assay with SNB-75 CNS, 0.635 µM; in the assay with U251 CNS, 50.9 µM.
On to `Cc1cc(C)nc(SC2=C(Nc3cc(Cl)ccc3O)C(=O)N(Cc3ccccc3)C2=O)n1`, for which the GI50 in the assay on A498 renal was over 160 µM; in the assay on DU-145 prostate it was 39 µM; in the assay on HT29 colon it was 33.8 µM; with K-562 leukemia, 5.53 µM; with MCF7 breast, 20.5 µM; in the assay with NCI-H460 lung, 56.6 µM. The GI50 is 27 µM in the assay with OVCAR-8 ovarian, 4.03 µM with RXF 393 renal, 21.8 µM in the assay with SNB-75 CNS and 38.6 µM with U251 CNS. Also, the TGI in the assay on A498 renal was over 160 µM; in the assay with DU-145 prostate, 108 µM; in the assay on HT29 colon, 65 µM; with K-562 leukemia it was over 160 µM; with MCF7 breast it was 109 µM; in the assay on NCI-H460 lung it was over 160 µM. In addition, the TGI with OVCAR-8 ovarian is 110 µM; in the assay on RXF 393 renal it was 17.2 µM; in the assay on SNB-75 CNS it was 104 µM; in the assay with U251 CNS, over 160 µM.
For the compound `COC(=O)CCCCC(=O)c1c(C)[nH]c(/C=C2\N=C(c3ccc[nH]3)C=C2OC)c1C`, the GI50 in the assay with A498 renal is 2.49 µM; in the assay with DU-145 prostate, 0.482 µM; with HT29 colon, 0.198 µM; with K-562 leukemia, 0.403 µM; in the assay with MCF7 breast it was 0.723 µM; with NCI-H460 lung it was 3.03 µM. The GI50 with OVCAR-8 ovarian was 0.451 µM; in the assay with RXF 393 renal it was 0.524 µM; in the assay with SNB-75 CNS, 0.851 µM; in the assay with U251 CNS it was 0.868 µM. For the same compound, the TGI is 6.39 µM in the assay on A498 renal; 1.81 µM in the assay on DU-145 prostate; 1.41 µM in the assay with HT29 colon; 1.77 µM in the assay on K-562 leukemia; 2.09 µM with MCF7 breast; 10.1 µM in the assay with NCI-H460 lung. Moreover, the TGI came to 1.76 µM in the assay on OVCAR-8 ovarian, 2 µM with RXF 393 renal, 2.24 µM in the assay on SNB-75 CNS and 2.15 µM in the assay with U251 CNS.
Consider `CC(C)(O)CNc1nc(Nc2ccnc(C(F)(F)F)c2)nc(-c2cccc(C(F)(F)F)n2)n1`, for which the GI50 in the assay with A498 renal was 16.1 µM; in the assay on DU-145 prostate, 21.6 µM; with HT29 colon it was 17.1 µM; with K-562 leukemia it was 29.4 µM; in the assay on MCF7 breast it was 18.2 µM; with NCI-H460 lung, 23.8 µM. Also, the GI50 was 26.3 µM in the assay with OVCAR-8 ovarian, 20.7 µM in the assay on RXF 393 renal, 15.9 µM with SNB-75 CNS and 25.9 µM in the assay with U251 CNS. The TGI was 37.2 µM in the assay on A498 renal; 67.8 µM in the assay with DU-145 prostate; 41.2 µM in the assay with HT29 colon; over 100 µM with K-562 leukemia; 42.5 µM in the assay on MCF7 breast; 60.8 µM with NCI-H460 lung. For the same compound, the TGI with OVCAR-8 ovarian turned out to be 84.8 µM; in the assay with RXF 393 renal, 48.4 µM; in the assay with SNB-75 CNS, 42.7 µM; in the assay on U251 CNS, 78.2 µM.
Regarding `Oc1cccc2ccc(N/N=C/c3cc(CN4CCOCC4)c(O)c4ncccc34)nc12`, the GI50 is 0.376 µM in the assay on A498 renal; 0.0645 µM with DU-145 prostate; 0.324 µM in the assay with HT29 colon; 0.0152 µM with K-562 leukemia; 0.021 µM in the assay with MCF7 breast; under 0.0104 µM in the assay on NCI-H460 lung. In addition, the GI50 in the assay with OVCAR-8 ovarian was 0.0207 µM; in the assay with RXF 393 renal, 0.048 µM; with SNB-75 CNS, 0.0253 µM; in the assay on U251 CNS, under 0.0154 µM. The TGI was 4.06 µM in the assay on A498 renal; 6.22 µM in the assay on DU-145 prostate; 5.92 µM in the assay on HT29 colon; 6.03 µM in the assay on K-562 leukemia; 1.54 µM in the assay on MCF7 breast; 1.2 µM in the assay on NCI-H460 lung. The TGI in the assay on OVCAR-8 ovarian is 2.09 µM; in the assay on RXF 393 renal it was 1.66 µM; with SNB-75 CNS, 2 µM; with U251 CNS, 3.74 µM.
Regarding `COC1=C(OC)C(=O)C(SC/C=C(\C)CCCC(C)CCCC(C)CCCC(C)C)=CC1=O` (stereo not given), the GI50 was 1.57 µM with A498 renal; 4.27 µM with DU-145 prostate; 4.24 µM in the assay on HT29 colon; 0.678 µM with K-562 leukemia; 0.455 µM in the assay on MCF7 breast; 0.95 µM with NCI-H460 lung. Moreover, the GI50 is 0.456 µM with OVCAR-8 ovarian, 1.36 µM with RXF 393 renal, 0.972 µM with SNB-75 CNS and 0.479 µM in the assay with U251 CNS. Besides, the TGI in the assay on A498 renal is 6.05 µM; with DU-145 prostate, over 100 µM; in the assay with HT29 colon, over 100 µM; with K-562 leukemia it was over 100 µM; in the assay with MCF7 breast it was over 26.9 µM; in the assay on NCI-H460 lung, over 32.7 µM. Besides, the TGI in the assay on OVCAR-8 ovarian is over 100 µM; with RXF 393 renal, over 91.6 µM; in the assay with SNB-75 CNS, over 26.1 µM; in the assay on U251 CNS, over 100 µM.
As for `Cc1cccc2c3c(sc12)C(c1ccc(Cl)cc1)C(C#N)=C(N)O3` (stereo not given), the GI50 with A498 renal was 0.211 µM; in the assay with DU-145 prostate, 0.459 µM; in the assay with HT29 colon, 0.394 µM; in the assay on K-562 leukemia, 0.285 µM; with MCF7 breast it was 0.257 µM; in the assay with NCI-H460 lung it was 0.37 µM. The GI50 with OVCAR-8 ovarian was 0.471 µM; in the assay on RXF 393 renal, 0.215 µM; with SNB-75 CNS, 0.214 µM; in the assay with U251 CNS it was 0.408 µM. The TGI came to 1.2 µM in the assay with A498 renal; 11.6 µM with DU-145 prostate; 6.12 µM in the assay on HT29 colon; 14.2 µM in the assay with K-562 leukemia; 4.64 µM in the assay with MCF7 breast; 3.92 µM with NCI-H460 lung. The TGI is 6.89 µM in the assay with OVCAR-8 ovarian, 0.649 µM in the assay on RXF 393 renal, 0.71 µM with SNB-75 CNS and 11 µM in the assay on U251 CNS.
Consider `OCCNC1c2cc(Cl)ccc2-c2c(Cl)cc(Cl)cc21` (stereo not given), for which the TGI is over 100 µM with A498 renal; over 100 µM with DU-145 prostate; over 100 µM in the assay on HT29 colon; over 100 µM in the assay on K-562 leukemia; 53.8 µM in the assay on MCF7 breast; 63.4 µM with NCI-H460 lung. Besides, the TGI in the assay with OVCAR-8 ovarian, with RXF 393 renal, in the assay with SNB-75 CNS and in the assay with U251 CNS was over 100 µM in each case.
As for `CC1OC(OC2C(O)CC(OC3C(O)CC(OC4CCC5(C)C(CCC6C5CC(O)C5(C)C(C7=CC(=O)OC7)CCC65O)C4)OC3C)OC2C)CC(O)C1O` (stereo not given), the GI50 in the assay on A498 renal was 0.107 µM; with DU-145 prostate, 0.0308 µM; in the assay with HT29 colon, 0.0417 µM; in the assay with K-562 leukemia, 0.0319 µM; with MCF7 breast, 0.0436 µM; in the assay on NCI-H460 lung it was 0.0305 µM. For the same compound, the GI50 in the assay on OVCAR-8 ovarian is 0.0566 µM; with RXF 393 renal, 0.0293 µM; with SNB-75 CNS, 0.0765 µM; in the assay on U251 CNS, 0.0514 µM. Besides, the TGI in the assay with A498 renal came out at 0.544 µM; with DU-145 prostate, 0.0903 µM; in the assay on HT29 colon it was 0.154 µM; with K-562 leukemia, 0.122 µM; with MCF7 breast, 0.196 µM; with NCI-H460 lung, 0.088 µM. Further, the TGI was 0.196 µM with OVCAR-8 ovarian, 0.0994 µM in the assay on RXF 393 renal, 0.241 µM in the assay on SNB-75 CNS and 0.165 µM with U251 CNS.
